Results published in PMC11788587, “Validating Low‐Dose Iohexol as a Marker for Glomerular Filtration Rate by In Vitro and In Vivo Studies” (Clinical and Translational Science, 2025).

Legend:
[1] = target: T1, hOCT1 (Homo sapiens, UniProt O15245); assay: Substrate assessment: iohexol uptake in 293 cells expressing hOCT1 vs control; assay type: in vitro ADME; settings: 10 μM iohexol, median (95% CI)
T1 construct: expressed in transfected cells; host or cells: HEK-293 (293) cells, pEBTetD plasmid, doxycycline-induced
T1 sequence (O15245 1-554): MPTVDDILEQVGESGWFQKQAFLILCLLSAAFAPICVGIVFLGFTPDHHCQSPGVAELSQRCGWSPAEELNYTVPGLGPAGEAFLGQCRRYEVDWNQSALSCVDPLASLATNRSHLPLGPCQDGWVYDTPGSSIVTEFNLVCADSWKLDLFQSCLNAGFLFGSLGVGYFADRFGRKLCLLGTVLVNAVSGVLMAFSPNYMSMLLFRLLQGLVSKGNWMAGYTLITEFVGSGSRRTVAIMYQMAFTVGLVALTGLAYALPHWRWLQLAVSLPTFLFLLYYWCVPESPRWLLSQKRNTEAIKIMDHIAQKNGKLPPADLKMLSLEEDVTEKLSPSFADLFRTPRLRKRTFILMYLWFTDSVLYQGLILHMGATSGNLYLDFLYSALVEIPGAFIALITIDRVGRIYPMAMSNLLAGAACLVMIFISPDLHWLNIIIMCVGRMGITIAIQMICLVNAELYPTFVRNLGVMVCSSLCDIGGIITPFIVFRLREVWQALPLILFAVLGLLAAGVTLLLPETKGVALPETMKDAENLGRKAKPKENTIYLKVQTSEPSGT
Text: (§1) We characterized the inhibitory potential of iohexol on major drug transporters recommended by regulatory agencies, which were previously assessed in a clinical transporter phenotyping cocktail study. These transporters include hOAT1, hOAT3, hOCT1, hOCT2, hMATE1, hMATE2K, human organic anion transporter polypeptides (hOATP)1B1, hOATP1B3, and human multidrug resistance protein (hMDR)1. Additionally, we investigated whether iohexol is a substrate for any of the renal transporters among these, including hOAT1/3, hOCT1/2, and hMATE1/2K. Cell‐based uptake assays were used to assess the activities of hOAT1/3, hOCT1/2, hMATE1/2K, and hOATP1B1/1B3. Inside‐out membrane vesicle uptake assays were used to evaluate the activity of hMDR1.
For substrate assessments, iohexol was incubated with stably transfected HEK‐293 cells expressing one of the following transporters: hOAT1, hOAT3, hOCT1, hOCT2, hMATE1, or hMATE2K, as well as with control cells lacking transporter expression. Stably transfected cell lines containing pEBTetD plasmids with wild‐type human transporter cDNAs were generated as previously described. Transporter expression was induced by adding 1 μg/mL doxycycline to the growth medium for at least 20 h. Iohexol would be considered a substrate for these transporters if: (1) the ratio of iohexol uptake in cells expressing the transporter to that in control cells was ≥ 2, and (2) a known inhibitor of the transporter reduced iohexol uptake to ≤ 50% at concentrations ≥ 10 times its inhibition constant or half‐maximal inhibitory concentration.
Uptake assays were performed using stably transfected 293 cells, with or without the expression of one of the following transporters: hOAT1, hOAT3, hOCT1, hOCT2, hMATE1, or hMATE2K, as previously described.^1
For the substrate assessment, cells were incubated with 10 µM iohexol for 10 minutes and 30 minutes for each transporter. Inhibition assays were performed using specific standard substrates for each transporter: 10 µM para-aminohippuric acid (PAH) for hOAT1, 3 µM estrone-3-sulfate (E3S) for hOAT3, 50 µM metformin for hOCT1, 5 µM metformin for hOCT2, and 3 µM 1-methyl-4-phenylpyridinium (MPP+) for hMATE1 and hMATE2K. […]
(§2) R version 4.2.1 (R Foundation for Statistical Computing, Vienna, Austria) was used for statistical evaluations and data visualization. The data analysis approach for the in vitro study was detailed by Hsin CH et al..^1 In brief, for transport assays, the initial uptake rate was calculated by normalizing the substrate concentration to both the protein concentration and the incubation time for each dish or well. The transporter-mediated uptake rate (net uptake) was determined by performing an element-wise subtraction of uptake rates from different conditions. […]

[2] = target: T2, hOAT3 (Homo sapiens, UniProt Q8TCC7); assay: Inhibition of hOAT3-mediated E3S uptake, stably transfected 293 cells; assay type: cell-based; settings: substrate 3 µM E3S, median (95% CI)
T2 construct: expressed in transfected cells; host or cells: HEK-293 (293) cells, pEBTetD plasmid, doxycycline-induced
T2 sequence (Q8TCC7 1-542): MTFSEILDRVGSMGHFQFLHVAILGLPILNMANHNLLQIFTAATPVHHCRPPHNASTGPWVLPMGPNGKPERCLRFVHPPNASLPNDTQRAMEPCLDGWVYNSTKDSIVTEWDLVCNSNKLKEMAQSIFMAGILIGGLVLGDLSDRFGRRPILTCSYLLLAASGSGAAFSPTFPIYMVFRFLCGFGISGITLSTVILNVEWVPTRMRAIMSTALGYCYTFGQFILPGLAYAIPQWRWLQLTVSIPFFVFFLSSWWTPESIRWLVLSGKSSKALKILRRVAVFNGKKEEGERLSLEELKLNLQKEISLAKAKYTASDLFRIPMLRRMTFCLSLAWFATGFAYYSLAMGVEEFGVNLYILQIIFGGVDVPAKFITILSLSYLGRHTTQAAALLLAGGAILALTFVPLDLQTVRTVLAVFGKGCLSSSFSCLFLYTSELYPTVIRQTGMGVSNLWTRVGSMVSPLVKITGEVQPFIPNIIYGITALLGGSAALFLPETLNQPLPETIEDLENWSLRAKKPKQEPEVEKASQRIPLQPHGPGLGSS
Text: as §1
To determine the maximal inhibitory potential of iohexol, intracellular accumulation of a standard substrate was measured with and without the clinically relevant highest concentrations of iohexol. Control inhibitors were tested in each experiment.
In all subsequent in vitro studies, control experiments were conducted to validate the results. These included positive controls for substrates and inhibitors, as well as cells either without transporter expression or transfected with an empty vector, and control vesicles. Each condition, including cells or vesicles with the transporter and their respective controls, was analyzed in at least three replicates. For detailed information on materials, methods, and data analysis techniques used, refer to the Supporting Information. […]
as §2

Differences in intracellular accumulation (expression on minus off) ([1]; 10 minutes): 0.16 (-1.8 to 0.79) pmol/mg protein
Uptake ratio (transporter-expressing vs non-expressing cells) ([1]; 10 minutes): 1 (0.84 to 1.1)
Differences in intracellular accumulation (expression on minus off) ([1]; 30 minutes): -0.51 (-1.1 to -0.15) pmol/mg protein
Uptake ratio (transporter-expressing vs non-expressing cells) ([1]; 30 minutes): 0.89 (0.79 to 0.97)
Inhibitory effect (% reduction of specific activity) ([2]; 20 mM iohexol): no notable inhibitory effects
inhibition at 1000 µM ([2]; HEK293, 1 mM iohexol, read-out: Inhibitory effect (% reduction of specific activity)): -4%
inhibition at 20000 µM ([2]; HEK293, 20 mM iohexol, read-out: Inhibitory effect (% reduction of specific activity)): -3.5%
SMILES: CC(=O)N(CC(O)CO)c1c(I)c(C(=O)NCC(O)CO)c(I)c(C(=O)NCC(O)CO)c1I (stereo not shown) [iohexol]
